From ChEMBL document CHEMBL3351373, “Five-membered heteroaromatic ring fused-pyrimidine derivatives: design, synthesis, and hedgehog signaling pathway inhibition study” (Bioorg Med Chem Lett, 2014) come the findings set out here.

This experiment is described as follows: Inhibition of hedgehog receptor signaling pathway in mouse NIH3T3 cells transfected with Gli-reporter gene by luciferase reporter gene assay. It is filed as cell-based. On the technique in general: A reporter such as luciferase makes a cellular process visible.

The term IC50 denotes the concentration that gives 50% inhibition. Read a high IC50 as lower potency. Take `CS(=O)(=O)c1ccc(C(=O)Nc2ccc(Cl)c(-c3ccccn3)c2)c(Cl)c1` [VISMODEGIB]: half-maximal inhibition (IC50) was put at 7.17 nM.

In the case of `O=C1Cc2cc(Nc3nc(-c4ccc(OC(F)(F)F)cc4)c4nc[nH]c4n3)ccc2N1`, the IC50 was greater than 1000 nM.

Take `Cc1cccc(C)c1NC(=O)c1ccc(Nc2nc(-c3ccc(OC(F)(F)F)cc3)c3c(ccn3C)n2)cc1`: the IC50 amounted to 1.17 nM.

Compound `Cc1ccc(CN2CCOCC2)cc1NC(=O)c1ccc(Nc2nc(-c3ccc(OC(F)(F)F)cc3)c3nc[nH]c3n2)cc1` returned an IC50 of 0.69 nM.

`Cc1cccc(C)c1NC(=O)c1ccc(Nc2nc(-c3ccc(OC(F)(F)F)cc3)c3[nH]ccc3n2)cc1` registered an IC50 of 12.8 nM.

As for `Cc1ccc(CN2CCOCC2)cc1NC(=O)c1ccc(Nc2nc(-c3ccc(OC(F)(F)F)cc3)c3ncn(C)c3n2)cc1`, the midpoint of inhibition, the IC50, lay at 0.35 nM.

`Cc1ccc(CN2CCOCC2)cc1NC(=O)c1ccc(Nc2nc(-c3ccc(OC(F)(F)F)cc3)c3occc3n2)cc1` displayed an IC50 of 1.13 nM.

`Cc1cccc(C)c1NC(=O)c1ccc(Nc2nc(-c3ccc(OC(F)(F)F)cc3)c3nc[nH]c3n2)cc1` came in with a half-maximal inhibitory concentration (IC50) of 512 nM.

The compound `Cc1cccc(C)c1NC(=O)c1ccc(Nc2nc(-c3ccc(OC(F)(F)F)cc3)c3ccsc3n2)cc1` yielded an IC50 of 0.6 nM.

For the compound `Cc1ccc(CN2CCN(C)CC2)cc1NC(=O)c1ccc(Nc2nc(-c3ccc(OC(F)(F)F)cc3)c3ccsc3n2)cc1`, the IC50 worked out at 3.36 nM. Compared with the last compound, the IC50 is about 5.6-fold higher.

The compound `Cc1ccc(CN2CCN(C)CC2)cc1NC(=O)c1ccc(Nc2nc(-c3ccc(OC(F)(F)F)cc3)c3c(ccn3C)n2)cc1` gave an IC50 of 5.1 nM.

Consider `Cc1ccc(CN2CCOCC2)cc1NC(=O)c1ccc(Nc2nc(-c3ccc(OC(F)(F)F)cc3)c3cc[nH]c3n2)cc1`, for which the IC50 came to 6.04 nM.

`FC(F)(F)Oc1ccc(-c2nc(Nc3ccc4[nH]ncc4c3)nc3[nH]cnc23)cc1` gave an IC50 of 399 nM.

Compound `Cc1cccc(C)c1NC(=O)c1ccc(Nc2nc(-c3ccc(OC(F)(F)F)cc3)c3occc3n2)cc1` registered an IC50 of 1.78 nM.

On to `Cc1ccc(CN2CCN(C)CC2)cc1NC(=O)c1ccc(Nc2nc(-c3ccc(OC(F)(F)F)cc3)c3[nH]ccc3n2)cc1`, for which the IC50 came to 1.39 nM.

Consider `Cc1cccc(C)c1NC(=O)c1ccc(Nc2nc(-c3ccc(OC(F)(F)F)cc3)c3ccn(C)c3n2)cc1`, for which the IC50 was found to be 2.58 nM.

In turn, `Cc1ccc(CN2CCN(C)CC2)cc1NC(=O)c1ccc(Nc2nc(-c3ccc(OC(F)(F)F)cc3)c3sccc3n2)cc1` registered an IC50 of 9.39 nM. This IC50 lies about 3.6-fold higher than the previous one.

As to `Cc1ccc(CN2CCN(C)CC2)cc1NC(=O)c1ccc(Nc2nc(-c3ccc(OC(F)(F)F)cc3)c3nc[nH]c3n2)cc1`, half-maximal inhibition (IC50) required 0.9 nM.

As to `Cc1cccc(C)c1NC(=O)c1ccc(Nc2nc(-c3ccc(OC(F)(F)F)cc3)c3cc[nH]c3n2)cc1`, the IC50 is 6.85 nM. Compared with the last compound, the IC50 is about 7.6-fold higher.

Take `Cc1ccc(CN2CCOCC2)cc1NC(=O)c1ccc(Nc2nc(-c3ccc(OC(F)(F)F)cc3)c3ccsc3n2)cc1`: the IC50 was found to be 1.75 nM.

`Cc1cccc(C)c1NC(=O)c1ccc(Nc2nc(-c3ccc(OC(F)(F)F)cc3)c3sccc3n2)cc1` came in with an IC50 of 3.61 nM.

`Cc1cccc(C)c1NC(=O)c1ccc(Nc2nc(-c3ccc(OC(F)(F)F)cc3)c3ncn(C)c3n2)cc1`: the IC50 was 116 nM.

`Cc1ccc(OCCN2CCOCC2)cc1NC(=O)c1ccc(Nc2nc(-c3ccc(OC(F)(F)F)cc3)c3nc[nH]c3n2)cc1` returned an IC50 of 2.98 nM.
